Measurements as given in patent US10501421B1, “Substituted benzimidazoles as modulators of Ras signaling” (VANDERBILT UNIVERSITY, priority 2017, dated 2019).
Structures can show the parent of a compound that is named as a salt.

Tests used:
Son of Sevenless (SOS) = molecular target: T1, Son of Sevenless (SOS) (Homo sapiens, UniProt Q07889); test: Binding to SOS, fluorescence polarization anisotropy (FPA) probe displacement; conditions: displacement of FITC-conjugated probe (Example 285), affinity calculated from IC50
T1 sequence (Q07889 564-1049 limits assumed): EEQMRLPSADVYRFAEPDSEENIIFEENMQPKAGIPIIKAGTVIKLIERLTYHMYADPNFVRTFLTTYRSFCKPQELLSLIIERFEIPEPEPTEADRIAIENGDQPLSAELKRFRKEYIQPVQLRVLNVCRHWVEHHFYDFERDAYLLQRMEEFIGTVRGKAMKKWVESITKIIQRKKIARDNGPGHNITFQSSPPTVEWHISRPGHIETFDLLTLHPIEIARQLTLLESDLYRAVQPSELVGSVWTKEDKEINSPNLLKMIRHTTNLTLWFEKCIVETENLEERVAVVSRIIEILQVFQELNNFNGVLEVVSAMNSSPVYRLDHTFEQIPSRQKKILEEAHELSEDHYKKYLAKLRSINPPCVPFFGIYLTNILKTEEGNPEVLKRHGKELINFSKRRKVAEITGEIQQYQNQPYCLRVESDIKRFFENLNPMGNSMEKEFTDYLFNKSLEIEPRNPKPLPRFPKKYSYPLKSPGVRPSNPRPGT
Experimental: Compounds of the present invention were tested for their ability to bind to the Ras guanine exchange factor (GEF) Son of Sevenless (SOS). Binding to SOS was measured using a Fluorescence polarization anisotropy (FPA) assay that assesses the ability of a test compound to displace a fluorescent FITC-conjugated compound (Example 285). Briefly, the labeled probe compound is incubated with SOS in buffer. Changes in anisotropy indicative of displacement of the labeled probe for a test compound are assessed over a dose range of test compound. Data was analyzed by plotting fluorescence anisotropy values as a function of compound concentration. IC50 values were determined using a four-parameter dose-response (variable slope) and binding affinities were calculated from this IC50 value. This assay is performed in a method analogous to the assay disclosed in: Burns, M. C.; Sun, Q.; Daniels, R. N.; Camper, D. V.; Kennedy, J. P.; Phan, J.; Olejniczak, E. O.; Lee, T.; Waterson, A. G.; Rossanese, O. W.; Fesik, S. W. “Approach for targeting Ras with small molecules that activate SOS-mediated nucleotide exchange” Proc. Natl. Acad. Sci. 2014; 11(9): 3401-3406. PMCID: PMC3948241.

[1] = molecular target: Ras GEF SOS (Son of Sevenless) (Homo sapiens, UniProt Q07889); test: SOS-mediated nucleotide exchange on Ras (BODIPY-GDP fluorescence); format: biochemical; conditions: SOS-mediated exchange of BODIPY-GDP for GTP on Ras
Chain of Ras GEF SOS (Son of Sevenless) (P01112 1-166 partner limits assumed, one chain of several): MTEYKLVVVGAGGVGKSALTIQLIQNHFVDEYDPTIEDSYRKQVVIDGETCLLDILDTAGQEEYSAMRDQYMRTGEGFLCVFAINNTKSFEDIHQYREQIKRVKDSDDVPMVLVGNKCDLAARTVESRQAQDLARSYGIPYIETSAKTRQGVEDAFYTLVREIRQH
Procedure, shortened: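 Exchange rates were taken from single-exponential fits of the fluorescence time course as BODIPY-GDP on Ras was replaced by GTP. Compound went in first, then GTP and SOS. Mean rates plotted against concentration gave EC50 by four-parameter dose-response fitting.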

| Structure (SMILES) | Ki (Son of Sevenless (SOS)) | EC50 [1] |
| --- | --- | --- |
| Cc1cc2nc(NCCN3CCOCC3)n(Cc3cc(F)cc(F)c3)c2cc1C [Example 31, 1-(3,5-difluorobenzyl)-5,6-dimethyl-N-(2-morpholinoethyl)-1H-benzo[d]imidazol-2-amine trifluoroacetate] | > 5 µM | 5 to 30 µM |
| Cc1cc2nc(NCCN)n(Cc3cccc(C(F)(F)F)c3)c2cc1C [Example 33, N^1-(5,6-dimethyl-1-(3-(trifluoromethyl)benzyl)-1H-benzo[d]imidazol-2-yl)ethane-1,2-diamine trifluoroacetate] | > 5 µM | 1 to 5 µM |
| Cc1cc2nc(N3CCNCC3)n(Cc3cccc(Br)c3)c2cc1C [Example 34, 1-(3-bromobenzyl)-5,6-dimethyl-2-(piperazin-1-yl)-1H-benzo[d]imidazole trifluoroacetate] | > 5 µM | 5 to 30 µM |
| Cc1cc2nc(NCCN)n(Cc3cccc(Br)c3)c2cc1C [Example 35, N^1-(1-(3-bromobenzyl)-5,6-dimethyl-1H-benzo[d]imidazol-2-yl)ethane-1,2-diamine trifluoroacetate] | 1 to 5 µM | 1 to 5 µM |
| Cc1cc2nc(N3CCCNCC3)n(Cc3ccc(F)c(Cl)c3)c2cc1C [Example 36, 1-(3-chloro-4-fluorobenzyl)-2-(1,4-diazepan-1-yl)-5,6-dimethyl-1H-benzo[d]imidazole trifluoroacetate] | > 5 µM | 5 to 30 µM |
| Cc1cc2nc(N3CCNCC3)n(CC3CCCCC3)c2cc1C [Example 37, 1-(cyclohexylmethyl)-5,6-dimethyl-2-(piperazin-1-yl)-1H-benzo[d]imidazole trifluoroacetate] | > 5 µM | 5 to 30 µM |
| Cc1cc2nc(NCCN)n(CC3CCCCC3)c2cc1C [Example 38, N^1-(1-(cyclohexylmethyl)-5,6-dimethyl-1H-benzo[d]imidazol-2-yl)ethane-1,2-diamine trifluoroacetate] | > 5 µM | 5 to 30 µM |
| Cc1cc2nc(N3CCNCC3)n(Cc3ccc(Br)c(Cl)c3)c2cc1C [Example 39, 1-(4-bromo-3-chlorobenzyl)-5,6-dimethyl-2-(piperazin-1-yl)-1H-benzo[d]imidazole trifluoroacetate] | > 5 µM | 1 to 5 µM |
| Cc1cc2nc(N3CCNCC3)n(Cc3ccc(F)c(C(F)(F)F)c3)c2cc1C [Example 40, 1-(4-fluoro-3-(trifluoromethyl)benzyl)-5,6-dimethyl-2-(piperazin-1-yl)-1H-benzo[d]imidazole trifluoracetate] | > 5 µM | 5 to 30 µM |
| Cc1cc2nc(N3CCNCC3)n(Cc3cc(C)c(F)c(C)c3)c2cc1C [Example 41, 1-(4-fluoro-3,5-dimethylbenzyl)-5,6-dimethyl-2-(piperazin-1-yl)-1H-benzo[d]imidazole trifluoroacetate] | > 5 µM | 1 to 5 µM |
| Cc1cc2nc(NCCN)n(Cc3cc(C)c(F)c(C)c3)c2cc1C [Example 42, N^1-(1-(4-fluoro-3,5-dimethylbenzyl)-5,6-dimethyl-1H-benzo[d]imidazol-2-yl)ethane-1,2-diamine trifluoroacetate] | 1 to 5 µM | 1 to 5 µM |
| Cc1cc2nc(NCCCN)n(Cc3cc(C)c(F)c(C)c3)c2cc1C [Example 43, N^1-(1-(4-fluoro-3,5-dimethylbenzyl)-5,6-dimethyl-1H-benzo[d]imidazol-2-yl)propane-1,3-diamine trifluoroacetate] | > 5 µM | 5 to 30 µM |
| Cc1cc2nc(NCCN(C)C)n(Cc3cc(C)c(F)c(C)c3)c2cc1C [Example 44, N^1-(1-(4-fluoro-3,5-dimethylbenzyl)-5,6-dimethyl-1H-benzo[d]imidazol-2-yl)-N^2,N^2-dimethylethane-1,2-diamine trifluoroacetate] | > 5 µM | 5 to 30 µM |
| CNCCN(C)c1nc2cc(C)c(C)cc2n1Cc1cc(C)c(F)c(C)c1 [Example 45, N^1-(1-(4-fluoro-3,5-dimethylbenzyl)-5,6-dimethyl-1H-benzo[d]imidazol-2-yl)-N^1,N^2-dimethylethane-1,2-diamine trifluoroacetate] | > 5 µM | 5 to 30 µM |
| Fc1ccc(Cn2c(C3CCNCC3)nc3ccccc32)cc1 [Example 56, 1-(4-fluorobenzyl)-2-(piperidin-4-yl)-1H-benzo[d]imidazole trifluoroacetate] | > 5 µM | 5 to 30 µM |
| Clc1ccc(Cn2c(C3CCNCC3)nc3ccccc32)cc1 [Example 58, 1-(4-chlorobenzyl)-2-(piperidin-4-yl)-1H-benzo[d]imidazole trifluoroacetate] | > 5 µM | 5 to 30 µM |
| Cc1ccc2nc(N3CCNCC3)n(Cc3ccc(F)c(Cl)c3)c2c1 [Example 61, 1-(3-chloro-4-fluorobenzyl)-6-methyl-2-(piperazin-1-yl)-1H-benzo[d]imidazole trifluoroacetate] | 1 to 5 µM | 1 to 5 µM |
| Fc1ccc(Cn2c(N3CCNCC3)nc3ccc(C4CC4)cc32)cc1Cl [Example 62, 1-(3-chloro-4-fluorobenzyl)-6-cyclopropyl-2-(piperazin-1-yl)-1H-benzo[d]imidazole trifluoroacetate] | > 5 µM | 5 to 30 µM |
| Fc1ccc(Cn2c(N3CCNCC3)nc3ccc(Br)cc32)cc1Cl [Example 63, 6-bromo-1-(3-chloro-4-fluorobenzyl)-2-(piperazin-1-yl)-1H-benzo[d]imidazole trifluoroacetate] | 0.5 to 1 µM | < 1 µM |

Further lines, results first:

| Ki (Son of Sevenless (SOS)) | EC50 [1] | Structure (SMILES) |
| --- | --- | --- |
| 0.5 to 1 µM | 1 to 5 µM | Cc1cc2nc(NCCN)n(Cc3ccc(F)c(Cl)c3)c2cc1Br [Example 64, N^1-(6-bromo-1-(3-chloro-4-fluorobenzyl)-5-methyl-1H-benzo[d]imidazol-2-yl)ethane-1,2-diamine trifluoroacetate] |
| 1 to 5 µM | 1 to 5 µM | C=Cc1cc2c(cc1C)nc(NCCN)n2Cc1ccc(F)c(Cl)c1 [Example 65, N^1-(1-(3-chloro-4-fluorobenzyl)-5-methyl-6-vinyl-1H-benzo[d]imidazol-2-yl)ethane-1,2-diamine trifluoroacetate] |
| > 5 µM | 5 to 30 µM | CCc1cc2c(cc1C)nc(N1CCNCC1)n2Cc1ccc(F)c(Cl)c1 [Example 66, 1-(3-chloro-4-fluorobenzyl)-6-ethyl-5-methyl-2-(piperazin-1-yl)-1H-benzo[d]imidazole trifluoroacetate] |
| > 5 µM | 5 to 30 µM | CCc1cc2c(cc1C)nc(N1CCNCC1)n2Cc1ccc(F)c(CC)c1 [Example 67, 6-ethyl-1-(3-ethyl-4-fluorobenzyl)-5-methyl-2-(piperazin-1-yl)-1H-benzo[d]imidazole trifluoroacetate] |
| 0.5 to 1 µM | < 1 µM | Cc1cc2nc(NCCN)n(Cc3ccc(F)c(Cl)c3)c2cc1Cl [Example 69, N^1-(6-chloro-1-(3-chloro-4-fluorobenzyl)-5-methyl-1H-benzo[d]imidazol-2-yl)ethane-1,2-diamine trifluoroacetate] |
| 1 to 5 µM | 1 to 5 µM | Cc1cc2c(cc1Br)nc(N1CCNCC1)n2Cc1ccc(F)c(Cl)c1 [Example 70, 5-bromo-1-(3-chloro-4-fluorobenzyl)-6-methyl-2-(piperazin-1-yl)-1H-benzo[d]imidazole trifluoroacetate] |
| 1 to 5 µM | 1 to 5 µM | NCCNc1nc2ccc(C(F)(F)F)cc2n1Cc1ccc(F)c(Cl)c1 [Example 72, N^1-(1-(3-chloro-4-fluorobenzyl)-6-(trifluoromethyl)-1H-benzo[d]imidazol-2-yl)ethane-1,2-diamine trifluoroacetate] |
| 0.5 to 1 µM | < 1 µM | Fc1ccc(Cn2c(N3CCNCC3)nc3ccc(Cl)cc32)cc1Cl [Example 73, 6-chloro-1-(3-chloro-4-fluorobenzyl)-2-(piperazin-1-yl)-1H-benzo[d]imidazole trifluoroacetate] |
| 0.5 to 1 µM | < 1 µM | NCCNc1nc2ccc(Cl)cc2n1Cc1ccc(F)c(Cl)c1 [Example 74, N^1-(6-chloro-1-(3-chloro-4-fluorobenzyl)-1H-benzo[d]imidazol-2-yl)ethane-1,2-diamine trifluoroacetate] |
| 1 to 5 µM | 1 to 5 µM | Nc1ccccc1-c1cccc2c1nc(N1CCNCC1)n2Cc1ccc(F)c(Cl)c1 [Example 83, 2-(1-(3-chloro-4-fluorobenzyl)-2-(piperazin-1-yl)-1H-benzo[d]imidazol-4-yl)aniline trifluoroacetate] |
